# Reference: ChEMBL document CHEMBL1153218, “Non-peptide entry inhibitors of HIV-1 that target the gp41 coiled coil pocket” (Bioorg Med Chem Lett, 2010)
# Assay: Inhibition of HIV1 envelope gp41-mediated fusion of CHO cells expressing HIV1 envelope with calcein-AM labeled SupT1 cells by fluorescence assay
# Type: cell-based, Human immunodeficiency virus 1
row,Compound,EC50 [µM]
1,O=C(O)c1cc(C(=O)O)cc(C(=O)N(Cc2cccc(Oc3ccccc3)c2)[C@H]2CCCc3ccccc32)c1,41
2,O=C(O)c1ccccc1C(=O)N(Cc1cccc(Oc2ccc(Cl)cc2)c1)[C@H]1CCCc2ccccc21,3
3,O=C(O)c1ccccc1C(=O)N(Cc1cccc(Oc2ccccc2)c1)CC12CC3CC(CC(C3)C1)C2,7
4,O=C(O)c1cc(C(=O)O)c(C(=O)N(Cc2cccc(OC3CCOCC3)c2)[C@H]2CCCc3ccccc32)cc1C(=O)O,> 250
5,O=C(O)c1cc(C(=O)O)c(C(=O)N(Cc2ccc(-c3ccccc3Cl)cc2)[C@H]2CCCc3ccccc32)cc1C(=O)O,9
6,O=C(O)c1cc(C(=O)O)c(C(=O)N(Cc2ccc(-c3cc(Cl)cc(Cl)c3)cc2)[C@H]2CCCc3ccccc32)cc1C(=O)O,4
7,COc1ccc(-c2ccc(CN(C(=O)c3cc(C(=O)O)c(C(=O)O)cc3C(=O)O)[C@H]3CCCc4ccccc43)cc2)cc1,14
8,O=C(O)c1cc(C(=O)O)c(C(=O)N(Cc2ccc3c(c2)Cc2ccccc2-3)[C@H]2CCCc3ccccc32)cc1C(=O)O,26
9,O=C(O)c1ccc(C(=O)N(Cc2cccc(Oc3ccccc3)c2)[C@H]2CCCc3ccccc32)cc1C(=O)O,34
10,O=C(O)c1ccccc1C(=O)N(Cc1ccc(-c2ccccc2)cc1)[C@H]1CCCc2ccccc21,16
11,CC(=O)N[C@H](CCCCN)C(=O)N[C@H](CCCCN)C(=O)NCC(=O)N[C@H](C)C(=O)N[C@@H]1CSSC[C@H](C(=O)N[C@H](C)C(=O)N[C@H](C)C(N)=O)NC(=O)[C@@H](CC(C)C)NC(=O)[C@@H](Cc2c[nH]c3ccccc23)NC(=O)[C@@H](C)NC(=O)[C@@H](Cc2c[nH]c3ccccc23)NC(=O)[C@@H](CCC(=O)O)NC(=O)[C@@H](Cc2c[nH]c3ccccc23)NC(=O)CNC(=O)[C@@H](CC(C)C)NC(=O)[C@@H](CC(C)C)NC(=O)[C@@H](CCC(=O)O)NC1=O,19
12,O=C(O)c1cc(C(=O)O)c(C(=O)N(Cc2cccc(Oc3ccccc3)c2)[C@H]2CCCc3ccccc32)cc1C(=O)O [A-317491],13

# Assay: Binding affinity to HIV1 envelope gp41 by NMR study
# Design: species or system Human immunodeficiency virus 1
row,Compound,Kd [µM]
1,O=C(O)c1ccccc1C(=O)N(Cc1cccc(Oc2ccccc2)c1)Cc1ccccn1,> 5000
2,COc1ccc(-c2ccc(CN(C(=O)c3cc(C(=O)O)c(C(=O)O)cc3C(=O)O)[C@H]3CCCc4ccccc43)cc2)cc1,789
